Consider 3 molecules from patent US9012497B2, “Cyclohexyl carbamate compounds as active anti-cellulite ingredients” (Symrise AG, priority 2010, dated 2015).

The subject of one test is 3T3 cells. Description: ATP assay, inhibition of proliferation. The settings on record: Mus musculus, NIH3T3, 48 h, non-cytotoxic dilutions, mean values of at least 2 independent tests. The format is cell-based. As for the experimental part: 3T3 cells (mouse […] fibroblasts) were seeded in 96-well plates. After 24 h cultivation at 37° C. and 5% CO2 in DMEM (Dulbecco's Modified Eagle Medium), cells were treated with test substances for another 48 h. […] ATP content in the cells is measured by
The inhibition of proliferation was calculated by:
[formula] wherein RLU test substance=relative luminescent units of the wells with test substance and with cells RLU control=relative luminescent units of the wells without test substance, but with cells RLU control without cells=relative luminescent units of the wells without test substance and without cells
The IC50 is calculated from the proliferation inhibition [%] in a series of non-cytotoxic dilutions of tested samples. This is the concentration at which the proliferation is 50% inhibited.

The next test deals with T1, pancreatic lipase (PL) (Sus scrofa, UniProt P00591).
T1 construct: purchased Sigma-Aldrich
T1 sequence (P00591 1-450): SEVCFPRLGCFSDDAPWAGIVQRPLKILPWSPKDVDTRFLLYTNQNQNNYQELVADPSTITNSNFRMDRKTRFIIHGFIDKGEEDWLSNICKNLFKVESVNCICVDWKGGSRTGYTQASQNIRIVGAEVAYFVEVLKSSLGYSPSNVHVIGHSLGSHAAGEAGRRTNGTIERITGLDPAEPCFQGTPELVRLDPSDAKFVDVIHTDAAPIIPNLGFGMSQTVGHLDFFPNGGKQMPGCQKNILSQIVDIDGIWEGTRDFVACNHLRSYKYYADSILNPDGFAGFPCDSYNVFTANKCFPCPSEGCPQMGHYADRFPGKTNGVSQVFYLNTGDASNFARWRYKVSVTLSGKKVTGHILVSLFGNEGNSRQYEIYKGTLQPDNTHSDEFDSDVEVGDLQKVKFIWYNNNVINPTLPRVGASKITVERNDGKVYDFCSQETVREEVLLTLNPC
Kind of test: Inhibition of PL, MUF oleate hydrolysis. It is filed as biochemical. The settings on record: mean values of at least 2 independent tests. From the text: (§1) Lipogenesis is perceived as the storage of triglycerides in adipocytes. The inhibition of this storage can take place by means of the inhibition of the activity of extracellular lipoprotein lipase (LPL) in that the hydrolysis of extracellular triglycerides and therefore the absorption of free fatty acids by adipocytes are reduced. As a preliminary test, the inhibition of pancreatic lipase (PL) is investigated.
PL (Sigma-Aldrich), in the presence of test substances in different use concentrations has methylumbelliferyl oleate (MUF oleate) added as a substrate. Fluorescent methylumelliferon (MUF), is produced by hydrolysis of the MUF oleate by PL and is quantified. The inhibition of the hydrolysis of the MUF oleate is a measure of the inhibition of activity of the PL.
[formula] wherein MUF test substance=MUF concentration of the wells with test substance and with PL MUF control=MUF concentration of the wells without test substance, but with PL MUF control without PL=MUF concentration of the wells without test substance and without PL
The IC50 is calculated from the inhibition of the PL [%] in a series of dilutions of tested samples. This is the concentration, at which the activity of the PL is 50% inhibited.

A further test concerns the target T2, lipoprotein lipase (LPL) (Mus musculus, UniProt P11152).
T2 construct: endogenous in cells; host or cells: differentiated 3T3-L1 cells (mouse); heparin-released supernatant
T2 sequence (P11152 28-474): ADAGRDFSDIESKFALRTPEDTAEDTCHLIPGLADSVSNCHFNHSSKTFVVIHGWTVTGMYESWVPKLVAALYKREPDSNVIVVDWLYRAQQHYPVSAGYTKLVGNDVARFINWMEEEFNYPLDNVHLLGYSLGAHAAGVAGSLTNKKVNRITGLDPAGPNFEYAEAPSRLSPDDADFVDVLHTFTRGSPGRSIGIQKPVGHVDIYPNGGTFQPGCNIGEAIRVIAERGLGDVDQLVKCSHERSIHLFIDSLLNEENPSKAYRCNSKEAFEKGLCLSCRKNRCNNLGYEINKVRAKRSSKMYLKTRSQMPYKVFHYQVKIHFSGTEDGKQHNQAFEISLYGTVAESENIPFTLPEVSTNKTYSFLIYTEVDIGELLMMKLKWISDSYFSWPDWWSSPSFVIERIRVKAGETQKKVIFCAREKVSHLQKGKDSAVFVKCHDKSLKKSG
Kind of test: Inhibition of LPL (lipogenesis assay), MUF oleate hydrolysis. The settings on record: LPL obtained from differentiated 3T3-L1 cells; mean values of at least 2 independent tests. It is filed as biochemical.
From the text: as §1
The results of the inhibition of the PL are used as a preliminary test and are confirmed on LPL. To obtain LPL, 3T3-L1 cells (mouse embryonic fibroblast-like adipocyte cell line) are seeded in a 6-well plate with collagen I-coating in a concentration of 3×10^5 cells/well. The cultivation and differentiation of the cells takes place analogously to the details in Example 2 (adipogenesis assay). During the differentiation LPL is increasingly expressed. The LPL is present in a membrane-bound state and is released by one hour incubation with heparin solution at 2-8° C. to the supernatant of the cells.
The LPL thus obtained, in the presence of test substances in different use concentrations, has methylumbelliferyl oleate (MUF oleate) added as the substrate. Fluorescent methylumbelliferyl (MUF) is produced by hydrolysis of the MUF oleate by LPL and is quantified. The inhibition of the hydrolysis of the MUF oleate is a measure of the inhibition of the activity of the LPL and therefore the lipogenesis.
[formula] wherein MUF test substance=MUF concentration of the wells with test substance and with LPL MUF control=MUF concentration of the wells without test substance, but with LPL MUF control without LPL=MUF concentration of the wells without test substance and without LPL
The IC50 is calculated from the inhibition of the LPL [%] in a series of dilutions of tested samples. This is the concentration at which the activity of the LPL and therefore the lipogenesis is 50% inhibited.

For a further test, the system named is 3T3-L1 cells. Description: Lipolysis assay, in vitro on 3T3-L1 cells, free glycerol release. It is filed as cell-based. The settings on record: Mus musculus; differentiated 3T3-L1 cells, about 20 hours of incubation; mean values from at least 2 independent tests; read-out: Stimulation of lipolysis EC50. As for the experimental part:
3T3-L1 cells (mouse embryonic fibroblast-like adipocyte cell line) are seeded in a 48-well plate with collagen I-coating in a concentration of 3×10^4 cells/well. The cultivation and differentiation of the cells takes place analogously to the details in Example 2 (adipogenesis assay).
Various concentrations of the test substances are applied to the cells in DMEM, with bovine serum albumen added. After about 20 hours of incubation, the quantification of free glycerol in the supernatant of the cells takes place, which is released by the cells after hydrolysis of triglycerides in the cells and is a measure of the lipolysis of the cells. The quantification of the free glycerol is carried out based on an enzymatic method with a free glycerol reagent.
The stimulation of the lipolysis in the presence of test substances is calculated according to the following equation:
[formula] wherein A test substance=absorption of the wells with test substance and with cells A test substance without cells=absorption of the wells with test substance without cells (absorption control) A control=absorption of the wells without test substance, but with cells A control without cells=absorption of the wells without test substance and without cells
The EC50 is calculated from the lipolysis stimulation [%] in a series of dilutions of tested samples. This is the concentration at which the lipolysis is 50% stimulated.

As a reminder, the IC50 is the concentration that inhibits the measured activity by half. In general, EC50 refers to the concentration needed to bring the measured effect to its halfway point. In the case of `CCC(C)NC(=O)OC1CCCC(C)C1C` (stereo not drawn) [BIO1845, sec-Butyl-carbamic acid 2,3-dimethyl-cyclohexyl ester], the figures for the IC50 in the test on 3T3 cells, against pancreatic lipase (PL) and against lipoprotein lipase (LPL) were 345 µM, 720 µM and 1440 µM, respectively. Moreover, in the test with 3T3-L1 cells, the EC50 turned out to be 190 µM.

With `CCCCNC(=O)OC1CCCCC1C(C)C` (stereo not drawn) [BIO1841, Butyl-carbamic acid 2-isopropyl-cyclohexyl ester], the IC50 in the test on 3T3 cells is 255 µM; against pancreatic lipase (PL), 780 µM; against lipoprotein lipase (LPL) it was 1200 µM. For the same molecule, in the test on 3T3-L1 cells, the EC50 stood at 230 µM.

`CCCCNC(=O)OC1C(C)CCC(C)C1C` (stereo not drawn) [BIO1617, Butyl-carbamic acid 2,3,6-trimethyl-cyclohexyl ester]: the half-maximal inhibitory concentration (IC50) stood at 244 µM in the test on 3T3 cells, 1380 µM against pancreatic lipase (PL) and 610 µM on lipoprotein lipase (LPL). For the same molecule, the EC50 with 3T3-L1 cells came to 980 µM.
